We go through 40 molecules from patent publication US20180237399A1, “COMPOUNDS HAVING AGONISTIC EFFECT AGAINST GPR84, PREPARATION METHOD FOR COMPOUNDS AND USE OF COMPOUNDS” (SHANGHAI INSTITUTE OF MATERIA MEDICA, CHINESE ACADEMY OF …, priority 2015, published 2018).

The first experiment concerns the target T1, GPR84 (Homo sapiens, UniProt Q9NQS5).
Assay: not given
The following applies: CHO-GPR84 cells, cAMP assay; read-out: potencies (GPR84 agonists); cited from earlier work. (In general: cAMP levels reflect the balance of adenylyl cyclase and phosphodiesterase activity.)
Target sequence in this assay (Q9NQS5 whole entry, species assumed): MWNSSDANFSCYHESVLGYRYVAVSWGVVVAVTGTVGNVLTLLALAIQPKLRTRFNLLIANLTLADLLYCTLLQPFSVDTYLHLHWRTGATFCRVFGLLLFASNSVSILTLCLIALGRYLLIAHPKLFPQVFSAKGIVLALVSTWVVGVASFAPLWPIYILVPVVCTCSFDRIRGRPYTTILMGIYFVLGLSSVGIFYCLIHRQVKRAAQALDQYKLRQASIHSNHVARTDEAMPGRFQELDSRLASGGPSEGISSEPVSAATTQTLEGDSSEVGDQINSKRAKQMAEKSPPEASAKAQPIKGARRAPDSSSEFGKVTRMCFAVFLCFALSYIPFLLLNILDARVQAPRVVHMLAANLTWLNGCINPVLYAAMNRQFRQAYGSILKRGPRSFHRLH
As for `CCCCCCCCCCCC(=O)O` [lauric acid], the EC50 was 9000 nM.

Another experiment deals with T1, GPR84.
Assay: not given
To be noted: in words; cited from earlier work.
Target sequence in this assay (Q9NQS5 whole entry, species assumed): as above
With `CCCCCCCCC(O)C(=O)O` (stereo not shown) [2-OH—C10], the GPR84 agonist activities result was “some GPR84 agonist activities”.

On to `CCCCCCCCCCC(O)C(=O)O` (stereo not shown) [2-OH—C12], for which the GPR84 agonist activities result is “some GPR84 agonist activities”.

On to `CCCCCCCC(O)CC(=O)O` (stereo not shown) [3-OH—C10], for which the GPR84 agonist activities entry is “some GPR84 agonist activities”.

For the molecule `CCCCCCCCCC(O)CC(=O)O` (stereo not shown) [3-OH—C12], the GPR84 agonist activities result was “some GPR84 agonist activities”.

Another experiment has as its target T1, GPR84. Kind of experiment: Detection of cytoplasmic calcium ion concentration with Fluo-4 fluorescent dye tracer assay (GPR84 agonist activity). Format: cell-based. Details: expressed in transfected cells; host or cells: HEK293. The following applies: HEK293 cell line transfected with GPR84 and G16; Fluo-4 calcium fluorescence. The protocol:
Detection of Cytoplasmic Calcium Ion Concentration with Fluo-4 Fluorescent Dye Tracer Assay
The GPR84 agonist activity of the compounds of the invention was tested.
The human GPR84 cell line was obtained by transfecting a plasmid encoding the GPR84 and G16 proteins in the HEK293 cell line. The fluorescent dye Fluo-4 AM was purchased from Invitrogen.
Intracellular Ca^2+ ion is a very important second messenger of G protein-coupled receptor signaling pathway. […] Fluo-4 is a Ca^2+ ion-specific fluorescent probe that binds quantitatively to Ca^2+ ions and emits fluorescence. Therefore, fluorescence assay was used to detect the agonistic activity of compounds in 96-well or 384-well flat bottom microplates. The GPR84 cells were incubated with the Fluo-4 fluorescent dye and added with different concentrations of compounds for stimulation. The changes in the intracellular calcium concentration were detected by the fluorescence intensity of dyes.
• 1. […] The pH of the solution was adjusted to 7.4 with hydrochloric acid or NaOH. The solution was filtered, and stored at 4° C. for one month. • 2. Preparation of Ca^2+ buffer: Firstly, a 560 mM D-glucose (100×) stock solution and a 250 mM Sulfinpyrazone (1000×) stock solution were prepared. Then, to 100 mL of HBSS, was added BSA (0.5 g), 560 mM D-glucose stock solution (1 mL) and 250 mM Sulfinpyrazone (100 μL). […] The Ca^2+ buffer was mixed and used as freshly prepared. • 3. Preparation of dyes solution: Firstly, a stock solution of 3% Cremophor EL (100×) in PBS and a stock solution of 2 mM Fluo-4 (1000×) in DMSO was prepared. Secondly, one milliliter of dye solution was prepared by mixing 1 μL of 2 mM Fluo-4 AM with 10 μL of 3% Cremophor EL and diluting with 1 mL of Ca^2+ buffer and mixed. • 4. The GPR84 cells were cultured in a 96-well plate at a starting density of 4×10^4 cells. The cells were continually cultured for more than 24 hours so that the cell density was 80-90% for detection. • 5. The culture fluid was removed from the cells to be tested. The cells were added freshly prepared dyes and incubated in a 37-degree incubator for 40 minutes to 50 minutes. • 6. Preparation of […] solution: Compounds are dissolved and diluted to 3-fold the final working concentration with freshly prepared Ca^2+ buffer. If compounds are dissolved in DMSO, the final DMSO concentration should not exceed 1%. • 7. After the incubation completed, the dye was removed. The cells were washed with Ca^2+ buffer and then incubated with an additional 50 μL of Ca^2+ buffer for 5 to 10 minutes. • 8. The cells were stimulated with 25 μL/well of Ca^2′ buffer containing different concentrations of the compound. The plate was read by using the FlexStation III Multi-Mode Microplate Reader. The changes in the intracellular calcium concentration were detected by the fluorescence intensity of dyes.
Target sequence in this assay (Q9NQS5 whole entry): as the sequence (Q9NQS5 whole entry, species assumed) above
Take `CCCCCc1nc(O)cc(O)n1` [LY182]: the EC50 turned out to be 3670 nM.

Consider `CC(C)CCCc1nc(O)cc(O)n1` [LY196b], for which the EC50 came to 2100 nM.

For the molecule `CCCCCCCc1cc(O)cc(O)n1` [LY209], the EC50 was 1.25 nM.

Regarding `CCCCCCCc1nc(O)cc(O)n1` [LY210-b], the EC50 is 12.7 nM.

Consider `C#CCCCSc1nc(O)cc(O)n1` [LY210], for which the EC50 stood at 21600 nM.

Turning to `Oc1cc(O)nc(SCC2CCC2)n1` [LY212], the EC50 came out at 43400 nM.

For the molecule `CCCCCSc1nc(O)cc(O)n1` [LY214-5], the EC50 turned out to be 2480 nM.

On to `CCCCCCCCc1cc(O)cc(O)n1` [LY223], for which the EC50 was 1.34 nM.

For the molecule `CCC#CCCSc1nc(O)cc(O)n1` [LY224-a], the EC50 came out at 653 nM.

Turning to `CCCCCCCCc1nc(O)cc(O)n1` [LY224-b], the EC50 came to 11.4 nM.

For the molecule `CCCCCCCCc1cc(=O)[nH]c(=O)[nH]1` [LY224-c], the EC50 came out at 811 nM.

On to `CCCCCCCCc1nc(O)nc(O)n1` [LY225-b], for which the EC50 worked out at 1020 nM.

For `CC/C=C\CCSc1nc(O)cc(O)n1` [LY226], the EC50 came out at 924 nM.

Consider `CC(C)CCCSc1nc(O)cc(O)n1` [LY228-6b], for which the EC50 is 641 nM.

On to `CCCCCCCCCc1cc(O)cc(O)c1` [LY236], for which the EC50 was 435 nM.

On to `CCCCCCCC(C)c1nc(O)cc(O)n1` (stereo not shown) [LY238-c], for which the EC50 was determined as 299 nM.

For `CCCCCCCCCc1cc(O)cc(=O)o1` [LY238-d], the EC50 amounted to 3.51 nM.

As to `CCCCCCCCCc1nc(O)cc(O)n1` [LY238], the EC50 came out at 48.7 nM.

Take `CCCCCCCCNc1nc(O)cc(O)n1` [LY239]: the EC50 was found to be 6.14 nM.

For `CCCCCCCCc1cc(=O)[nH]c(=S)[nH]1` [LY240], the EC50 came out at 340 nM.

In the case of `CCCCCCCSc1nc(O)cc(O)n1` [LY242-7], the EC50 turned out to be 231 nM.

Take `CCCCc1ccc(-c2cc(O)cc(O)n2)cc1` [LY243]: the EC50 came to 6.1 nM.

`CCc1ccc(CCc2nc(O)cc(O)n2)cc1` [LY244]: the EC50 was 88.1 nM.

For `Oc1cc(O)nc(SCCc2ccccc2)n1` [LY248], the EC50 amounted to 3860 nM.

As for `CCCCCCCCSc1nc(O)cc(O)n1` [LY256-8], the EC50 came to 264 nM.

Turning to `Oc1cc(O)nc(SCCCc2ccccc2)n1` [LY262-a], the EC50 is 573 nM.

Turning to `CCc1ccc(CSc2nc(O)cc(O)n2)cc1` [LY262-b], the EC50 stood at 271 nM.

Turning to `O=c1cc(O)nc(SCCc2ccc(F)cc2)[nH]1` [LY266-a], the EC50 was determined as 2940 nM.

As for `Oc1cc(O)nc(SCCc2ccccc2F)n1` [LY266-b], the EC50 came out at 1990 nM.

For `Oc1cc(O)nc(SCCc2cccc(F)c2)n1` [LY266-c], the EC50 was found to be 2590 nM.

Consider `Oc1cc(O)nc(SCCCCc2ccccc2)n1` [LY276], for which the EC50 was determined as 435 nM.

Consider `Oc1cc(O)nc(SCCCCCc2ccccc2)n1` [LY290-a], for which the EC50 was 1080 nM.

Consider `CCCCCCCCCCCCSc1nc(O)cc(O)n1` [LY312-12], for which the EC50 is 1160 nM.

For `CCCCCCCCCCCCCCSc1nc(O)cc(O)n1` [LY340-14], the EC50 was 25700 nM.

As to `CCCCCCCCCCCCCCCCSc1nc(O)cc(O)n1` [LY368-16], the EC50 was 11300 nM.
